Experimental findings from the NIST ThermoML archive (doi:10.1021/je900137r) are described below.

Numbers after ± are expanded uncertainties.

For the data set the following is noted: Crystal; Adiabatic calorimetry.

For the compound `CCC` [propane], the Triple point temperature is recorded as 85.53 ± 0.039 K.
